Data from ChEMBL document CHEMBL1649164, “First organisms with acquired metallo-beta-lactamases (IMP-13, IMP-22, and VIM-2) reported in Austria” (2009).
Converted amounts (≈) assume the structure as drawn.

Tests used:
Type in all cases: functional
[1] = system: Pseudomonas aeruginosa; test: Antimicrobial activity against Pseudomonas aeruginosa isolate 22843 expressing VIM-2 beta lactamase gene by Etest
[2] = system: Pseudomonas aeruginosa; test: Antimicrobial activity against Pseudomonas aeruginosa isolate 27135 expressing VIM-2 beta lactamase gene by Etest
[3] = system: Pseudomonas aeruginosa; test: Antimicrobial activity against Pseudomonas aeruginosa isolate M136074 expressing IMP-22 beta lactamase gene by Etest
[4] = system: Pseudomonas aeruginosa; test: Antimicrobial activity against Pseudomonas aeruginosa isolate 26285 expressing IMP-13 beta lactamase gene by Etest
[5] = system: Pseudomonas aeruginosa; test: Antimicrobial activity against Pseudomonas aeruginosa isolate 27135 expressing VIM-2 beta lactamase gene by Etest in presence of clavulanate
[6] = system: Pseudomonas aeruginosa; test: Antimicrobial activity against Pseudomonas aeruginosa isolate 26285 expressing IMP-13 beta lactamase gene by Etest in presence of clavulanate
[7] = system: Pseudomonas aeruginosa; test: Antimicrobial activity against Pseudomonas aeruginosa isolate M136074 expressing IMP-22 beta lactamase gene by Etest in presence of clavulanate
[8] = system: Pseudomonas aeruginosa; test: Antimicrobial activity against Pseudomonas aeruginosa isolate 22843 expressing VIM-2 beta lactamase gene by Etest in presence of clavulanate
[9] = system: Pseudomonas aeruginosa; test: Antimicrobial activity against Pseudomonas aeruginosa isolate 22843 expressing VIM-2 beta lactamase gene by Etest in presence of Tazobactam
[10] = system: Pseudomonas aeruginosa; test: Antimicrobial activity against Pseudomonas aeruginosa isolate 27135 expressing VIM-2 beta lactamase gene by Etest in presence of Tazobactam
[11] = system: Pseudomonas aeruginosa; test: Antimicrobial activity against Pseudomonas aeruginosa isolate 26285 expressing IMP-13 beta lactamase gene by Etest in presence of Tazobactam
[12] = system: Pseudomonas aeruginosa; test: Antimicrobial activity against Pseudomonas aeruginosa isolate M136074 expressing IMP-22 beta lactamase gene by Etest in presence of Tazobactam

COLISTIN
MIC [1]: 4 µg/mL | MIC [2]: 4 µg/mL | MIC [3]: 6 µg/mL | MIC [4]: 6 µg/mL

C[C@@H](O)[C@H]1C(=O)N2C(C(=O)O)=C(SCCNC=N)C[C@H]12 [IMIPENEM ANHYDROUS]
MIC [1]: > 32 µg/mL | MIC [2]: > 32 µg/mL | MIC [3]: 12 µg/mL (≈ 40.1 µM) | MIC [4]: > 32 µg/mL

NCC[C@H](O)C(=O)N[C@@H]1C[C@H](N)[C@@H](O[C@H]2O[C@H](CN)[C@@H](O)[C@H](O)[C@H]2O)[C@H](O)[C@H]1O[C@H]1O[C@H](CO)[C@@H](O)[C@H](N)[C@H]1O [AMIKACIN]
MIC [1]: > 256 µg/mL | MIC [2]: > 256 µg/mL | MIC [3]: 6 µg/mL (≈ 10.2 µM) | MIC [4]: 24 µg/mL (≈ 41 µM)

CC1(C)S[C@@H]2[C@H](NC(=O)[C@H](C(=O)O)c3ccsc3)C(=O)N2[C@H]1C(=O)O [TICARCILLIN]
MIC [1]: > 256 µg/mL | MIC [2]: > 256 µg/mL | MIC [5]: > 256 µg/mL | MIC [3]: > 256 µg/mL | MIC [6]: > 256 µg/mL | MIC [4]: > 256 µg/mL | MIC [7]: > 256 µg/mL | MIC [8]: > 256 µg/mL

C[C@@H](O)[C@H]1C(=O)N2C(C(=O)O)=C(S[C@@H]3CN[C@H](C(=O)N(C)C)C3)[C@H](C)[C@H]12 [MEROPENEM]
MIC [1]: > 32 µg/mL | MIC [2]: > 32 µg/mL | MIC [3]: 24 µg/mL (≈ 62.6 µM) | MIC [4]: > 32 µg/mL

O=C(O)c1cn(C2CC2)c2cc(N3CCNCC3)c(F)cc2c1=O [CIPROFLOXACIN]
MIC [1]: > 32 µg/mL | MIC [2]: > 32 µg/mL | MIC [3]: 32 µg/mL (≈ 96.6 µM) | MIC [4]: > 32 µg/mL

CO/N=C(\C(=O)N[C@@H]1C(=O)N2C(C(=O)O)=C(COC(C)=O)CS[C@H]12)c1csc(N)n1 [CEFOTAXIME]
MIC [1]: > 256 µg/mL | MIC [2]: > 256 µg/mL | MIC [3]: > 256 µg/mL | MIC [4]: > 256 µg/mL

CC(C)(O/N=C(\C(=O)N[C@@H]1C(=O)N2C(C(=O)[O-])=C(C[n+]3ccccc3)CS[C@H]12)c1csc(N)n1)C(=O)O [CEFTAZIDIME]
MIC [1]: 12 µg/mL (≈ 22 µM) | MIC [2]: 12 µg/mL (≈ 22 µM) | MIC [3]: > 256 µg/mL | MIC [4]: > 256 µg/mL

CO/N=C(\C(=O)N[C@@H]1C(=O)N2C(C(=O)[O-])=C(C[N+]3(C)CCCC3)CS[C@H]12)c1csc(N)n1 [CEFEPIME]
MIC [2]: 24 µg/mL (≈ 49.9 µM) | MIC [3]: 128 µg/mL (≈ 266 µM) | MIC [4]: 128 µg/mL (≈ 266 µM)

CCN1CCN(C(=O)N[C@@H](C(=O)N[C@@H]2C(=O)N3[C@@H]2SC(C)(C)[C@@H]3C(=O)O)c2ccccc2)C(=O)C1=O [PIPERACILLIN]
MIC [9]: 32 µg/mL | MIC [10]: 32 µg/mL | MIC [1]: 32 µg/mL (≈ 61.8 µM) | MIC [2]: 32 µg/mL (≈ 61.8 µM) | MIC [11]: 16 µg/mL | MIC [3]: 12 µg/mL (≈ 23.2 µM) | MIC [12]: 8 µg/mL | MIC [4]: 16 µg/mL (≈ 30.9 µM)

C[C@H]1[C@H](NC(=O)/C(=N\OC(C)(C)C(=O)O)c2csc(N)n2)C(=O)N1S(=O)(=O)O [AZTREONAM]
MIC [1]: 12 µg/mL (≈ 27.6 µM) | MIC [2]: 12 µg/mL (≈ 27.6 µM) | MIC [3]: 4 µg/mL (≈ 9.19 µM) | MIC [4]: 12 µg/mL (≈ 27.6 µM)

NC[C@H]1O[C@H](O[C@H]2[C@H](O)[C@@H](O[C@H]3O[C@H](CO)[C@@H](O)[C@H](N)[C@H]3O)[C@H](N)C[C@@H]2N)[C@H](N)C[C@@H]1O [TOBRAMYCIN]
MIC [1]: > 256 µg/mL | MIC [2]: > 256 µg/mL | MIC [3]: 2 µg/mL (≈ 4.28 µM) | MIC [4]: 128 µg/mL (≈ 274 µM)

GENTAMICIN
MIC [1]: 8 µg/mL | MIC [2]: 8 µg/mL | MIC [3]: 4 µg/mL | MIC [4]: > 256 µg/mL
